Experimental data as given in patent US6376540B1, “Furan nitrone compounds” (Centaur Pharmaceuticals, Inc., priority 1996, dated 2002).

How the values were obtained:
synthetic Aβ(1-40) = molecular target: T1, synthetic Aβ(1-40) (Homo sapiens, UniProt P05067); assay: Inhibition of Aβ(1-40) beta-pleated sheet formation (ThT fluorescence); format: biochemical; details: 10 μM compound, ThT 3 μM, PBS pH 6.0, 12 hours; read-out: inhibition of Aβ(1-40) beta-pleated sheet formation compared to the controls
T1 construct: 3 μL of Aβ(1-40)(3 μg) prepared with dH2O
T1 sequence (P05067 672-711 limits assumed): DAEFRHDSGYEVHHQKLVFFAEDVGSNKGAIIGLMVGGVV
Description: The deposition of amyloid β-peptide (Aβ) is associated with the development of Alzheimer's disease. See, for example, G. G. Glenner et al. (1984) Biochem. Biophys. Res. Commun., 120:885-890; and R. E. Tanzi (1989) Ann. Med., 21:91-94. Accordingly, compounds which effectively disrupt the formation of Aβ(1-40) or Aβ(1-42) beta-pleated sheets are potentially useful for preventing and/or reversing such amyloid deposits. Thioflavin T (ThT) is known to rapidly associate with beta-pleated sheets, particularly the aggregated fibrils of synthetic Aβ(1-40). This association gives rise to a new excitation maximum at 440 nm and to enhanced emission at 490 nm.
The experiments were performed using a CytoFluor II fluorescence plate reader having the following parameters:
Into each well was aliquoted 95 μl of ThT (3 μM) prepared in PBS (pH 6.0), 2 μL of the compound to be tested (10 μM) prepared with 0.05% of methylcellulose in PBS (pH 6.0), and 3 μL of Aβ(1-40)(3 μg) prepared with dH2O (the compounds prepared in Examples 1, 3, 4, 5, 6, 7, 8, 9, 11 and 12 were tested). The fluorescence measurement began when the Aβ(1-40) was added and continued for a total of 12 hours. The percent inhibition of beta-pleated sheet formation was calculated from the relative fluorescence unit difference between aggregation in the presence and in the absence of the test compounds.

[1] = system: primary neuronal/astrocyte cultures; assay: Protection against Aβ(1-40)-induced neuronal cell loss; format: cell-based, Sprague Dawley rat; details: similar manner using Aβ(1-40) instead of Aβ(25-35)
Experimental: Patients with Alzheimer's disease are known to suffer a progressive loss of neuronal cells. See, for example, P. J. Whitehause et al., (1982) Science, 215:1237-1239. […] Sprague Dawley rat hippocampus of 18-day-gestation embryos was excised and then dissociated by trituration to prepare primary neuronal/astrocyte cultures. Cells (3×10^5) were plated on 35 mm poly-D-lysine-coated plates containing Eagle's minimum essential medium supplemented with 10% fetal bovine serum. After 3-5 hours, the original medium was removed and replaced with 1 mL of fresh medium. Cultures were maintained at 37° C. in a 5% CO2/95% air humidified incubator.
To the cells (7 DIV) was added 30 μM of Aβ(25-35) dissolved in dH2O (stored at −20° C.) and 100 μM of the test compound (i.e., a compound of Example 1, 3, 4, 5, 6, 7, 8, 12 or 13 above) in 1% methylcellulose. Controls were also conducted without the test compound. The percentage of morphologically viable neurons was determined counting the number of viable neurons after 96 hours treatment compared to the number of neurons before treatment in the same premarked culture regions (three regions/culture, n=6).
In experiments conducted in a similar manner using Aβ(1-40) instead of Aβ(25-35), the compound prepared in Example 1 above reduced Aβ(1-40)-induced neuronal cell loss by 46% compared to the controls.

[2] = system: rat permanent middle cerebral artery occlusion (MCAO) model; assay: Rat permanent middle cerebral artery occlusion (MCAO) stroke model; format: in vivo
Experimental: A rat permanent middle cerebral artery occlusion (MCAO) model was used to determine stroke treatment efficacy. MCAO is a representative model of acute CNS disorders. See, for example, M. D. Ginsberg et al., “Rodent Models of Cerebral Ischemia” (1989) Stroke, 20:1627-1642. In this stroke model, the middle cerebral artery was permanently occluded via cauterization to produce a focal stroke. N-isopropyl-α-(2-sulfofuran-5-yl)nitrone, sodium salt (prepared in Example 1 above) was then administered as a 10 mg/kg i.v. bolus dose three hours post MCAO through a catheter surgically implanted in the jugular vein. Two days post MCAO, the rats were sacrificed and the extent of brain damage assessed using tetrazolium staining (TTC staining) followed by computer image analysis to quantitate infarct volumes, i.e., the regions of dead tissue. The mean infarct volume for rats treated with the test compound was 24.7 mm^3 whereas the mean infarct volume for rats not treated with the test compound was 36.0 mm^3. […] Thus, N-isopropyl-α-(2-sulfofuran-5-yl)nitrone, sodium salt reduced the mean infarct volume of a stroke by 32% when administered three hours post stroke compared to controls.

female Lewis rats = assay: Prevention of weight loss in the EAE model; format: in vivo, rat; details: 100 mg/kg po once a day, weighed daily
Experimental: Acclimated female Lewis rats, (Harlan; 200-250 g) were used in this experiment since this strain of rat is genetically highly susceptible to EAE. In the experiment, 100 mg/kg of N-isopropyl-α-(2-sulfofuran-5-yl)nitrone sodium salt (prepared in Example 1 above) or a vehicle alone (control) was administered po once a day from days 4 to 18. On day 1, the rats received an injection of 100 μg of MBP peptide, from guinea pig brain, plus 500 μg of H37RA Mycobacterium in 0.10 ml complete Freund's adjuvant divided equally between the two hind foot-pads.
To determine if the furan nitrones of formula I prevented such weight loss, the animals in the EAE model described in Example 27 above were weighed daily.

Fas^1pr mutation mice = assay: Learning deficit in autoimmune mice, active avoidance T-maze; format: in vivo
Experimental: Male MRL/MpJ controls and Fas^1pr mutation mice were either dosed orally with 1% methylcellulose (“MC”) or with 100 mg/kg of N-isopropyl-α-(2-sulfofuran-5-yl)nitrone sodium salt (prepared in Example 1 above)(“test compound”) in 1% methylcellulose for 9-10 weeks. Following dosing, animals of approximately 4 months of age were tested in an active avoidance T-maze. In the one day test, animals were analyzed for acquisition to avoid shock within the first five trials of the test.

**Q.** For `CC(C)[N+]([O-])=Cc1ccc(S(=O)(=O)O)o1` [Example 1, N-Isopropyl-α-(2-sulfofuran-5-yl)nitrone], which inhibition at 10 µM (synthetic Aβ(1-40)) is on record?
**A.** 15 to 71%

**Q.** What about the “reduction of Aβ(1-40)-induced neuronal cell loss compared to the controls” value [1] of the same compound?
**A.** 46%

**Q.** And the mean infarct volume ([2]; 10 mg/kg i.v. bolus three hours post MCAO, two days post MCAO, TTC staining)?
**A.** 24.7 mm^3

**Q.** And the “reduction of mean infarct volume compared to controls” value ([2]; 10 mg/kg i.v. bolus three hours post stroke)?
**A.** 32%

**Q.** And the weight change (female Lewis rats)?
**A.** normal or above normal weight gain

**Q.** And the “protection in acquisition learning deficit compared to Fas mutated animals receiving only 1% methylcellulose” value (Fas^1pr mutation mice; 100 mg/kg orally for 9-10 weeks, two experiments combined (n=14-15))?
**A.** 50%

**Q.** What about the “Mean Acquisition Values (Maximum score of 5.0)” value (Fas^1pr mutation mice; Fas^1pr mice, 100 mg/kg orally in 1% methylcellulose for 9-10 weeks, first five trials) of the same compound?
**A.** Mean = 1.467
